# Measured values: ChEMBL document CHEMBL1201862, “PubChem BioAssay data set” (2004)
# Active and inactive are the calls of the source.
# Tests used:
# [1] = Trypanosoma cruzi growth suppression in host cells – NIH3T3 host cells, beta-gal luminescence, confirmation (AID 2044); format: functional, cell-based;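 further: intracellular parasites grown in NIH/3T3 mouse fibroblasts as host cells; luminescent beta-galactosidase reporter signal from transgenic T. cruzi replicating inside host cells; inhibitors lower the luminescence signal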
# [2] = NIH3T3 cell viability loss – ATP luminescence, mouse fibroblasts, counter-screen, dose response (AID 2010); format: functional, cell-based;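 further: cells exposed to compound for about 90 hours before reading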
# [3] = molecular target: T1, Neuropeptide Y receptor type 1 (Homo sapiens, UniProt P25929); format: functional;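 further: HEK293 cells with a CNG channel challenged with NPY then isoproterenol; potency as antagonist that reverses NPY suppression of cAMP signal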
# T1 sequence (P25929 whole entry): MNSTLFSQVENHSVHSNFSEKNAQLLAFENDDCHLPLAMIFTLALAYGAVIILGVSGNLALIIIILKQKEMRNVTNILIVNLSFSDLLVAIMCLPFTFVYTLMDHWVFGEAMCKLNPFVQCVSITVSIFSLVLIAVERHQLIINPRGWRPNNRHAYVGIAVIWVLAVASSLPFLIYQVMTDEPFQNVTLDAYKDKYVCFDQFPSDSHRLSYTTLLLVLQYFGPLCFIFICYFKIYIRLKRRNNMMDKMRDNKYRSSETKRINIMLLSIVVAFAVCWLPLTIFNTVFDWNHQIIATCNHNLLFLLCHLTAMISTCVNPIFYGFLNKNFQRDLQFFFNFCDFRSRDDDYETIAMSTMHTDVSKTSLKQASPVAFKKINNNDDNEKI
# [4] = molecular target: T2, Neuropeptide Y receptor type 2 (Homo sapiens, UniProt P49146); format: functional, cell-based;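 further: HEK293 cells expressing the receptor and a CNG channel; stimulus was NPY near EC95 followed by isoproterenol to raise cAMP; antagonist potency measured as restoring cAMP signal that NPY suppresses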
# T2 sequence (P49146 whole entry): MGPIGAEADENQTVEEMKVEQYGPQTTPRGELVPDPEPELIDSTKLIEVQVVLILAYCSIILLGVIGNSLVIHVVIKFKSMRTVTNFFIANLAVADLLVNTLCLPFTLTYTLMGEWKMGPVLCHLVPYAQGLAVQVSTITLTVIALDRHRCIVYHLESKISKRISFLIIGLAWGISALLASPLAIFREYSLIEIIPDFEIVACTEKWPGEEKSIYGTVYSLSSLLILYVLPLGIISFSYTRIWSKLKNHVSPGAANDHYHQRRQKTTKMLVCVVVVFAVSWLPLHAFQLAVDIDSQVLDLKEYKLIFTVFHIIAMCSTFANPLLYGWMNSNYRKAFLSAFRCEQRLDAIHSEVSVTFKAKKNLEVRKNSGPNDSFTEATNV
# [5] = luciferase reporter signal suppression in cells – H4 neuroglioma cells, luminescence, dose response (AID 1990); format: functional, cell-based
# [6] = Luminescence Cell-Based Dose Response HTS to Identify Inhibitors of 5'UTR Stem-Loop Driven Prion Protein mRNA Translation in H4 Neuroglioblastoma Cells. [Related pubchem assays: 1827 (Project Summary), 1813 (Primary HTS)]; format: functional
# [7] = molecular target: Luciferin 4-monooxygenase (Photinus pyralis, UniProt P08659); assay: inhibition of purified Photinus pyralis luciferase – biochemical, luminescence, dose response (AID 1891)
# [8] = Luminescence Cell-Based Dose Confirmation HTS to Identify Inhibitors of Platelet Dense Granule Release. [Related pubchem assays: 1663 (Primary HTS), 1678 (Summary of Project)]; format: functional
# [9] = Luminescence-based counterscreen assay for KLF5 inhibitors: dose response cell-based high throughput screening assay to identify cytotoxic compounds using the IEC-6 intestinal epithelial cell line. [Related pubchem assays: 1700 (Primary screen.), 1834 (Confirmation screen.), 1858 (Summary AID.), 1905 (Counterscreen.)]; format: functional
# [10] = blockers of bursicon-stimulated LGR2 cAMP reporter – cell-based, HEK293, CRE-luciferase reporter, cherry pick, set 2, dose response (AID 743343); format: functional;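 further: transfected cells were stimulated with diluted bursicon conditioned medium after compound addition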
# [11] = blockade of melanocortin 4 receptor signaling – cell-based, plate reader, cherry pick, counter-screen for LGR2 antagonist project, dose response (AID 743444); format: functional;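 further: transfected HEK 293 cells stimulated with alpha-MSH peptide; potency of inhibitors of the alpha-MSH evoked signal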
# [12] = viability loss in HEK293 cells – cell-based, plate reader, cherry-picked samples, cytotoxicity control, dose response (AID 743446); format: functional
# [13] = molecular target: Peroxisome proliferator-activated receptor gamma/Nuclear receptor coactivator 2 (Homo sapiens, UniProt P37231); format: functional;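 further: agonist potency for raising coactivator recruitment to the receptor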
# [14] = molecular target: Peroxisome proliferator-activated receptor gamma/Nuclear receptor coactivator 1 (Homo sapiens, UniProt P37231); format: functional;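 further: agonist potency as compounds enhance coactivator SRC-1 recruitment to PPARgamma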
# [15] = molecular target: Peroxisome proliferator-activated receptor gamma/Nuclear receptor coactivator 3 (Homo sapiens, UniProt P37231); format: functional;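 further: agonist potency for raising coactivator recruitment to the receptor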
# Cytochrome P450 2C19 [16] = molecular target: T3, Cytochrome P450 2C19 (Homo sapiens, UniProt P33261); assay: Cytochrome panel assay with activity outcomes. Panel member name: p450-cyp2c19 Compounds with AC50 equal or less than 10 uM are considered active; format: functional; details: read-out: AC50
# Cytochrome P450 3A4 [17] = molecular target: T4, Cytochrome P450 3A4 (Homo sapiens, UniProt P08684);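 further: CYP3A4 tested as one member of a cytochrome P450 panel screen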
# Cytochrome P450 2C9 = Cytochrome P450 2C9 (Homo sapiens, UniProt P11712)
# [18] = molecular target: T5, Mannose-6-phosphate isomerase (Homo sapiens, UniProt P34949); assay: MPI enzyme activity inhibition – biochemical, fluorescence intensity, coupled assay, primary screen (AID 1209)
# T5 sequence (P34949 whole entry): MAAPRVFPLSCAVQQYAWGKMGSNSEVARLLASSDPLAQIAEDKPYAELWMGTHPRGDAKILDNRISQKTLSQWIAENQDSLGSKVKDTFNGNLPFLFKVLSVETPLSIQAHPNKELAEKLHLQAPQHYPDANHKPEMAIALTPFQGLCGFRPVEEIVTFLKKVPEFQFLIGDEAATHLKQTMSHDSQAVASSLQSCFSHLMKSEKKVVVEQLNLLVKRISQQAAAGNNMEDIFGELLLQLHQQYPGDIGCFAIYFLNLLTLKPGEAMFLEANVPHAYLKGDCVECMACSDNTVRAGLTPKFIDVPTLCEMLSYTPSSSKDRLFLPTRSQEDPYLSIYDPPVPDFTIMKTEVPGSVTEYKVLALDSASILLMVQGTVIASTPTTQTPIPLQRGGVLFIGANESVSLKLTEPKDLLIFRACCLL
# [19] = molecular target: T5, Mannose-6-phosphate isomerase; assay: MPI inhibition at elevated mannose 6-phosphate – biochemical, fluorescence intensity, high mannose 6-phosphate, primary screen (AID 1220)
# Cytochrome P450 3A4 [20] = molecular target: T4, Cytochrome P450 3A4; remark: listed apart in the source
# Cytochrome P450 2C19 [21] = molecular target: T3, Cytochrome P450 2C19; assay: qHTS Assay for Inhibitors and Substrates of Cytochrome P450 2C19. [Related pubchem assays: 410 ]; format: ADME; details: read-out: Potency
# BJ [22] = assay: BJ-TERT fibroblast viability loss – cell-based, RAS-independent, luminescence, dose response (AID 1933); format: functional; details: Homo sapiens
# BJ [23] = assay: cells; format: functional, cell-based; details: Homo sapiens
# BJ [24] = assay: BJ-TERT-LT-ST fibroblast viability loss – cell-based, RAS-independent, luminescence, dose response (AID 1935); format: functional; details: Homo sapiens;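 further: BJ fibroblasts immortalized with TERT plus LT and ST oncogenes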
# [25] = DRD fibroblast viability loss – cell-based, non-viral oncogenic, luminescence, dose response (AID 1934); format: functional; details: Homo sapiens
# [26] = molecular target: T6, Histone-lysine N-methyltransferase NSD2 (Homo sapiens, UniProt O96028); format: biochemical
# T6 sequence (O96028 whole entry): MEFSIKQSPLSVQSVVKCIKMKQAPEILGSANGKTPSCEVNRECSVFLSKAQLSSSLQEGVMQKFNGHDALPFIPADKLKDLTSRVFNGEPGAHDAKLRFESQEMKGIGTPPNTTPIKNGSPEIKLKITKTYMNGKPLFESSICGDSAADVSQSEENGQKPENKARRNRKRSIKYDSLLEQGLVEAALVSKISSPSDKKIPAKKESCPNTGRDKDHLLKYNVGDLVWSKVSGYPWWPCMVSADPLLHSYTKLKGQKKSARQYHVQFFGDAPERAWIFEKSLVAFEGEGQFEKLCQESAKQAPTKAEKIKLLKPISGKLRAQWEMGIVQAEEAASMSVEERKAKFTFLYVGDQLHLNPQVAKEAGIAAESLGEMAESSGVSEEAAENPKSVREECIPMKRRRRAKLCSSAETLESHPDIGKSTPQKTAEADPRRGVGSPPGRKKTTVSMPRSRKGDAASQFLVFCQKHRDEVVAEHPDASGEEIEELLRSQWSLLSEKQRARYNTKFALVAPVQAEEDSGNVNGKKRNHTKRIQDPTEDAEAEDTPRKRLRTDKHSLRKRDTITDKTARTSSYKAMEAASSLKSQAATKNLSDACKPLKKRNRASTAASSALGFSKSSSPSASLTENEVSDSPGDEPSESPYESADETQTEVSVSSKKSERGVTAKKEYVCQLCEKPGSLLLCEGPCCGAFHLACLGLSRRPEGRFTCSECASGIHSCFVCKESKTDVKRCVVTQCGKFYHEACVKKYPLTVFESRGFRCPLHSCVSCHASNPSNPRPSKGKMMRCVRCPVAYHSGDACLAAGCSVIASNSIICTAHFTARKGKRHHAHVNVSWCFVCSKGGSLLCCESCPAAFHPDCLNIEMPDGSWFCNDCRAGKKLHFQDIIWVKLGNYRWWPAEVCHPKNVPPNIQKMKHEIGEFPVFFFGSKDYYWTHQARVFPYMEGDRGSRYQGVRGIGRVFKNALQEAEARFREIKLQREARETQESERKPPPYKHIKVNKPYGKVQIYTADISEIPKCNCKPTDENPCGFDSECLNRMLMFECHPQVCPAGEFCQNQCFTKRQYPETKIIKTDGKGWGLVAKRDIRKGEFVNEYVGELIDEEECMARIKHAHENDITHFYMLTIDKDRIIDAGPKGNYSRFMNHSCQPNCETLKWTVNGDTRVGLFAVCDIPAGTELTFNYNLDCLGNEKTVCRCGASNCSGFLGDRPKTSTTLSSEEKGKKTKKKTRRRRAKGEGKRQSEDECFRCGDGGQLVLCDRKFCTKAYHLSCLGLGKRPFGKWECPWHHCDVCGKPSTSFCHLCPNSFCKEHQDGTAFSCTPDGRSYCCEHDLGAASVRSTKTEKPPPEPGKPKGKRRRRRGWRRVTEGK
# [27] = P. falciparum Dd2 growth inhibitors, dose response, SYBR Green, cherry-picked samples (AID 1159567); format: functional, cell-based
# [28] = toxicity to human hepatoma HepG2 cells – cell-based, cherry-picked samples, cytotoxicity control, dose response (AID 1159577); format: functional
# Chain of Peroxisome proliferator-activated receptor gamma/Nuclear receptor coactivator 2 (P37231 whole entry): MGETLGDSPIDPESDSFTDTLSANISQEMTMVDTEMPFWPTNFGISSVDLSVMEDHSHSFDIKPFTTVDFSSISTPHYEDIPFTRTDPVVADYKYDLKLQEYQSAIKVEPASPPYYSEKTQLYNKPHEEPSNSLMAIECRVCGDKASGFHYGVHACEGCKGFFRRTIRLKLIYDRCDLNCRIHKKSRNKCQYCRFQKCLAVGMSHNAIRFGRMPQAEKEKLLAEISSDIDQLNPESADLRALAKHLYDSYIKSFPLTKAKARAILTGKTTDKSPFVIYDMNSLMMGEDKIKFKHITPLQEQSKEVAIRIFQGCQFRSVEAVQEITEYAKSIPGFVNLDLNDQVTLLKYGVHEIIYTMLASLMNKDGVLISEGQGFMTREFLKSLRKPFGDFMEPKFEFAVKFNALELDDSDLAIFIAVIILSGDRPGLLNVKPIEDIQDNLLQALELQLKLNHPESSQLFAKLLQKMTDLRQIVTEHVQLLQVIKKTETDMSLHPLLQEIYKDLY
# Chain of Peroxisome proliferator-activated receptor gamma/Nuclear receptor coactivator 2 (Q15596 whole entry, further chain): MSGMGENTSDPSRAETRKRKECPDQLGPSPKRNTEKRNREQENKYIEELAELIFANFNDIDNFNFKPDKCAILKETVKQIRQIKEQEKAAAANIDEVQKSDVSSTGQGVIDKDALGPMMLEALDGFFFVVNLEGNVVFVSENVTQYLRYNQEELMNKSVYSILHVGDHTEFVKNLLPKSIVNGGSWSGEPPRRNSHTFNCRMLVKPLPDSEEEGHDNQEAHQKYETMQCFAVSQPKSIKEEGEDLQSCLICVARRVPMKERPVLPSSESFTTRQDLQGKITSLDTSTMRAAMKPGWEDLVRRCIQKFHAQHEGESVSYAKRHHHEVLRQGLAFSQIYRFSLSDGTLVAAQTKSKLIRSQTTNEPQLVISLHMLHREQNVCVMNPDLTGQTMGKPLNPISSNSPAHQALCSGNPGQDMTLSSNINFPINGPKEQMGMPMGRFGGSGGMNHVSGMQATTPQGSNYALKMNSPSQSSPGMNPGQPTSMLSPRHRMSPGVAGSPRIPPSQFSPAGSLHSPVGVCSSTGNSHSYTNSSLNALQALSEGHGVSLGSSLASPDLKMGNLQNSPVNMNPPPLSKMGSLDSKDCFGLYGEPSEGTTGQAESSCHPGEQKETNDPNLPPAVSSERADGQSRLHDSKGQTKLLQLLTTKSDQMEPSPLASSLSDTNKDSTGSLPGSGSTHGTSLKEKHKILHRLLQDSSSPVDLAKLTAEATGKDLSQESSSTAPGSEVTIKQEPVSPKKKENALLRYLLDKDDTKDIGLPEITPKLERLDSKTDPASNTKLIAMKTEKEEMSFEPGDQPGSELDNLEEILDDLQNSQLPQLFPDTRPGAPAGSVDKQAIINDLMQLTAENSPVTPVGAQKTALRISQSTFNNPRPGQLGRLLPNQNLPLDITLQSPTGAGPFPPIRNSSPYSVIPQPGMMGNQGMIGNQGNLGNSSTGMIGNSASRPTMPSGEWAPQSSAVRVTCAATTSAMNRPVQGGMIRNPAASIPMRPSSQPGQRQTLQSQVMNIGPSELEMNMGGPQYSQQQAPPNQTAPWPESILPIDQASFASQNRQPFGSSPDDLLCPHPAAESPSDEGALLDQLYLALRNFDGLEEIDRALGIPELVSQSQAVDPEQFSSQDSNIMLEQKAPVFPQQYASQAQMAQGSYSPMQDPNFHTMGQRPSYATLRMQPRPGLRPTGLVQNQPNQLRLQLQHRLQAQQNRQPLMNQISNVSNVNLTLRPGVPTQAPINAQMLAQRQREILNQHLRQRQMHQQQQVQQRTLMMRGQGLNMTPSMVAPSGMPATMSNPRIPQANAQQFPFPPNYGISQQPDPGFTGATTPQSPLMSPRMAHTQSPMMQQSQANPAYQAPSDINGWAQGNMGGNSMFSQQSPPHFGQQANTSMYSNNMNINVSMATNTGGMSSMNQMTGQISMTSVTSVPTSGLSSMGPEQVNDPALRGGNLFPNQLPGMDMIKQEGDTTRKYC
# Chain of Peroxisome proliferator-activated receptor gamma/Nuclear receptor coactivator 3 (P37231 whole entry): as the sequence (P37231 whole entry) above
# Chain of Peroxisome proliferator-activated receptor gamma/Nuclear receptor coactivator 3 (Q9Y6Q9 whole entry, further chain): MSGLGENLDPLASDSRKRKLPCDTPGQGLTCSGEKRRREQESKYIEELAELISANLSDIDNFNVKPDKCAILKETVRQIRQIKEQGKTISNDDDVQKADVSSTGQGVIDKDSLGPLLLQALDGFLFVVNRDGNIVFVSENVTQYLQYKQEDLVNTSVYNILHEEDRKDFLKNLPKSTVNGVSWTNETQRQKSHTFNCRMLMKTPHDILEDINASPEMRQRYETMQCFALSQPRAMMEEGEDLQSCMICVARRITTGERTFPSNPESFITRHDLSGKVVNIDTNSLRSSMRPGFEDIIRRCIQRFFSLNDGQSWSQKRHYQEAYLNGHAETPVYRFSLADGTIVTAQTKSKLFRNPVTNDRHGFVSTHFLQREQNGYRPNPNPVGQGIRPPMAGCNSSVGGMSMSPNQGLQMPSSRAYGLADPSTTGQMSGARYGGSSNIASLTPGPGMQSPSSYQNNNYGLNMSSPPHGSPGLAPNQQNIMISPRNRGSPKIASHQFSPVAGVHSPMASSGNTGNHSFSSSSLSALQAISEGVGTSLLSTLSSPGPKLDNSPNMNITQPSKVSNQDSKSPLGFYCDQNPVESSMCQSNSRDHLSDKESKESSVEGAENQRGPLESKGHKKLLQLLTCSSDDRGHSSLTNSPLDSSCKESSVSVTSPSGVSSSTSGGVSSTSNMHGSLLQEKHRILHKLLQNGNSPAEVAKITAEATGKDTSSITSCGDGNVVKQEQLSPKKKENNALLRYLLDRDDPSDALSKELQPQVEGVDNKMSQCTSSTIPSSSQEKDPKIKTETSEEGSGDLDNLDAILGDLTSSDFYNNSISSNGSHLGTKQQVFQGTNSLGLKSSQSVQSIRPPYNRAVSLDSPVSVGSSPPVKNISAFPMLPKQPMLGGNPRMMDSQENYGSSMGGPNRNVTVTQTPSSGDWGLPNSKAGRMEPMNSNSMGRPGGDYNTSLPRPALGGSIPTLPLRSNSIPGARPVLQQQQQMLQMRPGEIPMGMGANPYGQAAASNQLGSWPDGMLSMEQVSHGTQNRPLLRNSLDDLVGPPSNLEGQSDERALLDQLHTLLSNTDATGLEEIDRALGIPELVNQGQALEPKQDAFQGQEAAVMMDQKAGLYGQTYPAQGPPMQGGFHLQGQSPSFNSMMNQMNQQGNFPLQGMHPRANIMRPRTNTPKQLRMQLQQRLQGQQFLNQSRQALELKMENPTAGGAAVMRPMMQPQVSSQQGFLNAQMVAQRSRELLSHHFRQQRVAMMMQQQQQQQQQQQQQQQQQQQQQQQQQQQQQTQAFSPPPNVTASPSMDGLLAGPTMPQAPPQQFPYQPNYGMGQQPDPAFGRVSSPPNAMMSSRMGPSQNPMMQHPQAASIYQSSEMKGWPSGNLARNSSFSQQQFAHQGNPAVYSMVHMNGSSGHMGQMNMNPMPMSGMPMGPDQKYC
# T3 sequence (P33261 whole entry): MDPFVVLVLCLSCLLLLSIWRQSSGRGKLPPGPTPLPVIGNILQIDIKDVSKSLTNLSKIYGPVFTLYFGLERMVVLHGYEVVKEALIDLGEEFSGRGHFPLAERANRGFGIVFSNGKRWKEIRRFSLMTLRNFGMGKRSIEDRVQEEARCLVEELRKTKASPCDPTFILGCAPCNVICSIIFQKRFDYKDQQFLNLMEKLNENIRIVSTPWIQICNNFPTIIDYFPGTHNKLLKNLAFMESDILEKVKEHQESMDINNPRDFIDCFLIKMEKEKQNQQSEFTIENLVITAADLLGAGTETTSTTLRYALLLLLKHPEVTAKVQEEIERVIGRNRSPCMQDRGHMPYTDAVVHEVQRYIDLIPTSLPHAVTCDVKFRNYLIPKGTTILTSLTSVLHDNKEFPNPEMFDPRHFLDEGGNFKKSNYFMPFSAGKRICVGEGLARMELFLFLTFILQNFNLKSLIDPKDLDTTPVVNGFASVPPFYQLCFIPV
# T4 sequence (P08684 whole entry): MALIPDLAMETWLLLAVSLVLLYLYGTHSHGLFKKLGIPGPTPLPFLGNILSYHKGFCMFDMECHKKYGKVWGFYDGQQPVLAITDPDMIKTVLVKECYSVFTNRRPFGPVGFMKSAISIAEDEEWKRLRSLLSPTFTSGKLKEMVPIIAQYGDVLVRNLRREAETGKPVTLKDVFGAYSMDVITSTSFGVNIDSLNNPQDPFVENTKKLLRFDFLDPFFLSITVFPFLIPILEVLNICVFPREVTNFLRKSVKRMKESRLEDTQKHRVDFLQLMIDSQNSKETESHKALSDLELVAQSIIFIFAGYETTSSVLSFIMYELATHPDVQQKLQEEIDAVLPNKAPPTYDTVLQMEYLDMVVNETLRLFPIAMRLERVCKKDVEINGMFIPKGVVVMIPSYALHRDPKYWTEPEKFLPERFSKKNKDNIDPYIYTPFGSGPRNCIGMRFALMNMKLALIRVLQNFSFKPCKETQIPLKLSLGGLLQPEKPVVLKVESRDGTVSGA
compound,measurement,setting,value
O=C(NCCc1c[nH]c2ccccc12)c1cc([N+](=O)[O-])cc([N+](=O)[O-])c1,EC50,[1],< 0.1 µM (active)
same,EC50,[2],> 60 µM (not active)
same,EC50,cells,0.264 µM (active)
O=C(COC(=O)/C=C/c1ccc(Cl)cc1)Nc1ccccc1-c1ccccc1,IC50,[3],6.13 µM (active)
same,IC50,[4],8.06 µM (active)
Cc1cc(C(=O)N(C)CC2CCCN(CCc3ccc(F)cc3)C2)c(C)o1 (centres undefined),EC50,[1],< 0.1 µM (active)
same,EC50,[2],> 60 µM (not active)
same,EC50,cells,0.279 µM (active)
Clc1ccccc1/C=C/c1nc(-c2ccccn2)no1,EC50,[5],3.76 µM (active)
same,EC50,[6],5.54 µM (active)
same,EC50,[7],1.87 µM (active)
same,EC50,[8],6.25 µM (active)
same,IC50,[9],> 39.8 µM (not active)
same,AC50,[10],2 µM (active)
same,AC50,[11],2.74 µM (active)
same,AC50,[12],> 52 µM (inactive)
N#Cc1c(-c2ccccc2)cc(-c2ccccc2)nc1SCc1nnc(-c2ccccc2)o1,EC50,[13],25.1 µM (not active)
same,EC50,[14],26.1 µM (not active)
same,EC50,[15],27.6 µM (not active)
same,AC50,Cytochrome P450 2C19 [16],1.41 µM (inconclusive)
same,AC50,Cytochrome P450 3A4 [17],7.08 µM (inconclusive)
same,AC50,Cytochrome P450 2C9,0.251 µM (inconclusive)
O=C(O)/C=C/C(=O)Nc1ccc2c(c1)NC(=O)CO2,IC50,[18],> 50 µM (not active)
same,IC50,[19],> 50 µM (not active)
Cc1cc(Cl)ccc1Oc1ncnc2oc(-c3ccccc3)cc12,EC50,[13],> 79.4 µM (not active)
same,EC50,[14],> 79.4 µM (not active)
same,EC50,[15],> 79.4 µM (not active)
same,AC50,Cytochrome P450 3A4 [20],inconclusive
CCC(Oc1ccc2c(=O)c(-c3ccccc3OC)coc2c1)C(=O)OCc1ccccc1 (centres undefined),IC50,[3],11.5 µM (not active)
same,IC50,[4],4.12 µM (active)
CCOc1cc2c(C#N)c(N3CCOCC3)nc(N)c2c(N)n1,IC50,[18],> 50 µM (not active)
same,IC50,[19],> 50 µM (not active)
CCO[C@@H]1OC(C(=O)N2CCN(Cc3ccc4c(c3)OCO4)CC2)=C[C@H](c2csc3ccccc23)[C@H]1CCCO,EC50,[13],> 79.4 µM (not active)
same,EC50,[14],> 79.4 µM (not active)
same,EC50,[15],> 79.4 µM (not active)
CCOC(=O)OCC1OC(CCc2ccccc2)CCC1Oc1ccc(OC)cc1 (centres undefined),AC50,Cytochrome P450 2C19 [21],2.51 µM (inconclusive)
COC(=O)c1ccc(Oc2cc(C)nc(-n3nc(C)cc3C)n2)cc1,EC50,BJ [22],0.69 µM (active)
same,EC50,BJ [23],0.851 µM (active)
same,IC50,[9],34.2 µM (not active)
same,EC50,BJ [24],0.699 µM (active)
same,EC50,[25],2.25 µM (active)
same,AC50,Cytochrome P450 3A4 [17],39.8 µM (inconclusive)
COc1ccc(OC)c(Nc2cc(C)nc3nc(C)nn23)c1,IC50,[9],13 µM (not active)
Cc1ccc2nc(N(CCCN(C)C)C(=O)c3ccco3)sc2c1,EC50,[1],< 0.1 µM (active)
same,EC50,[2],> 60 µM (not active)
same,EC50,cells,0.036 µM (active)
C(=N/Nc1cc(N2CCOCC2)nc(N2CCOCC2)n1)/c1ccccc1,IC50,[18],> 50 µM (not active)
same,IC50,[19],> 50 µM (not active)
same,AC50,[26],> 20 µM (inactive)
COc1ccc(/C=C/C(=O)c2ccc(OC)cc2O)cc1,AC50,Cytochrome P450 2C19 [21],0.398 µM (inconclusive)
S=C(NCCc1ccccc1)N/N=C/c1ccccc1Cl,IC50,[3],5.02 µM (active)
same,IC50,[4],5.07 µM (active)
COc1ccc(S(=O)(=O)N(C)C[C@H]2Oc3c(NC(=O)Nc4ccccc4)cccc3C(=O)N([C@@H](C)CO)C[C@H]2C)cc1,AC50,[27],4.8 µM (active)
same,AC50,[28],33.8 µM (active)
